Columns and labels:
Type in all cases: biochemical
[1] = biological target: T1, human Tyro3 (Homo sapiens, UniProt Q06418); assay: Kinase enzymatic activity assay (33P-radiolabeled phosphate transfer), Tyro3; conditions: recombinant human Tyro3 (455-end), poly(4:1 glu:tyr) substrate, 30 minutes
T1 construct: GST (N); made in house; host or cells: Sf9 insect cells (baculovirus)
T1 sequence (Q06418 455-890 limits assumed): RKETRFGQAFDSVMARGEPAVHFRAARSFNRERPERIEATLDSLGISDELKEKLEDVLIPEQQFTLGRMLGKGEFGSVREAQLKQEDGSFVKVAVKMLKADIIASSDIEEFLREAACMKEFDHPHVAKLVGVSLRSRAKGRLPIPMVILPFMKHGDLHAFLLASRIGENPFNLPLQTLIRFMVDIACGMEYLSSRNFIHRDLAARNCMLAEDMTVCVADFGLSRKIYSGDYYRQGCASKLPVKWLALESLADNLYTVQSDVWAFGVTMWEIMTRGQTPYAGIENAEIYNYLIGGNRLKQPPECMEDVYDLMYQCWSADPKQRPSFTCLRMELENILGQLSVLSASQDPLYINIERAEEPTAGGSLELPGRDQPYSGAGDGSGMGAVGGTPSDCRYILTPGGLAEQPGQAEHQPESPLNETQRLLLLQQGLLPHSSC
From the text: (§1) The identification of compounds of the invention as Tyro3, Axl or Mer inhibitors was readily accomplished using the recombinant human Tyro3, Axl and Mer proteins and employing the ^33P-radiolabeled phosphate transfer assay for which the procedure is known to someone skilled in the art or as described in Example 9.
(§2) Recombinant human Tyro3 (455-end, the gene accession number NM_006293), human Axl (473-end, the gene accession number NM_021913) and human Mer (578-872, the gene accession number NM_006343) were independently expressed by baculovirus in Sf9 insect cells using an N-terminal GST tag. The recombinant proteins were stored at −70° C. in a medium containing 50 mM Tris-HCl, pH 7.5, 150 mM NaCl, 10 mM glutathione, 0.1 mM EDTA, 0.25 mM DTT, 0.1 mM PMSF and 25% glycerol. The recombinant proteins were aliquoted into smaller quantities after centrifugation to avoid repeated handling and multiple freeze/thaw cycles for the most favorable performance.
(§3) Kinase Assay Buffer: This buffer solution consisted of the following components: 25 mM MOPS, pH 7.2, 12.5 mM β-glycerol-phosphate, 25 mM MgCl2, 5 mM EGTA, 2 mM EDTA and DTT 0.25 mM which was added prior to use.
(§4) Kinase Dilution Buffer: Kinase Assay Buffer was diluted at a 1:4 ratio (5× dilution) with distilled water.
(§5) [^33P]-ATP assay cocktail: In a designated radioactive working area, a 250 μM [^33P]-ATP assay cocktail was prepared by the addition of the following components: 150 μL of 10 mM ATP stock solution, 100 μL [^33P]-ATP (1 mci/100 μL), and 5.75 mL of kinase assay buffer. This solution was stored in 1 mL aliquots at −20° C.
(§6) ATP stock solution (10 mM): The ATP stock solution was prepared by dissolving 55 mg of ATP in 10 mL of kinase assay buffer. It was stored in 200 μL aliquots at −20° C.
(§7) Active Kinase Stock Solution: The active recombinant kinase protein (0.1 μg/μL) was diluted with Kinase Dilution Buffer and the activity was assayed using a serial dilution method. The specific activity is expressed in nmoL/min/mg.
(§8) Substrates: poly(4:1 glu:tyr) is the substrate used for each kinase Tyro3, Axl and Mer: The peptide substrate was dissolved in water to give the final concentration of 1 mg/mL.
(§9) Test compound solution: Test compound was dissolved in DMSO to obtain a 10 mM solution. The assay solution was prepared by adding 5 μL of this solution to […] of 10% DMSO/water to obtain the final concentration of 50 μM.
(§10) The enzymatic activity of all three kinases was determined as follows. Using a 96-well plate, the wells were divided into three categories: Blank wells, […] and Test wells. In Test wells, 5 μL of the test compound solution and 5 μL of the substrate solution were added. In Control wells, 5 μL of 10% DMSO/water and 5 μL of the substrate solution were added. In Blank wells, 10 μL of 10% DMSO/water was added. To each well was added 10 μL of Active Kinase Stock Solution to make up the volume in each well to 20 μL. All test samples, controls and blanks were run in duplicate. The reaction was initiated by the addition of 5 μL of [^33P]-ATP assay cocktail, bringing the final volume up to 25 μL in every well. The mixture was incubated at room temperature for 30 minutes. The reaction was terminated by transferring 10 μL of the reaction mixture into a Millipore MultiScreen filter plate (cat. number MSPHN6B50). The filter plate was washed in a 1% phosphoric acid solution with constant gentle shaking for 15 minutes and this step was repeated once. After the plate was dried in air, scintillation fluid was added to each well and the radioactivity in each well in CPM was counted by a Microbeta TriLux. The corrected CPM in each test well was determined by subtracting the average value of Blank well values. Percentage of inhibition of the kinase enzymatic activity by the test compound was determined using the following formula: […]
(§11) The IC50 values were determined in a similar way following a serial dilution of the test compound. […]

[2] = biological target: T2, human Axl (Homo sapiens, UniProt P30530); assay: Kinase enzymatic activity assay (33P-radiolabeled phosphate transfer), Axl; conditions: recombinant human Axl (473-end), poly(4:1 glu:tyr) substrate, 30 minutes
T2 construct: GST (N); made in house; host or cells: Sf9 insect cells (baculovirus)
T2 sequence (P30530 473-894 limits assumed): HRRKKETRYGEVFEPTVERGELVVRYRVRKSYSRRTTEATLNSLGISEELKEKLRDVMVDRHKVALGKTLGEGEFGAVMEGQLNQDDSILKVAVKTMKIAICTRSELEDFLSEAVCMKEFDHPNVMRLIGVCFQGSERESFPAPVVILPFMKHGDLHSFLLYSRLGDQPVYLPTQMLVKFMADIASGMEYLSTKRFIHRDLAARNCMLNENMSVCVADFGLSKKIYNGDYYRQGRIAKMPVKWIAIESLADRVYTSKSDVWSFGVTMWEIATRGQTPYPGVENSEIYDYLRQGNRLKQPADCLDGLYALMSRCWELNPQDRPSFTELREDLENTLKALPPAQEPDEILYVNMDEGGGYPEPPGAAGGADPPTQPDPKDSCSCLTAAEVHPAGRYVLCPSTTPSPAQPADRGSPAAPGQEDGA
From the text: as §1, §2, §3, §4, §5, §6, §7, §8, §9, §10, §11

[3] = biological target: T3, human Mer (Homo sapiens, UniProt Q12866); assay: Kinase enzymatic activity assay (33P-radiolabeled phosphate transfer), Mer; conditions: recombinant human Mer (578-872), poly(4:1 glu:tyr) substrate, 30 minutes
T3 construct: GST (N); made in house; host or cells: Sf9 insect cells (baculovirus)
T3 sequence (Q12866 578-872): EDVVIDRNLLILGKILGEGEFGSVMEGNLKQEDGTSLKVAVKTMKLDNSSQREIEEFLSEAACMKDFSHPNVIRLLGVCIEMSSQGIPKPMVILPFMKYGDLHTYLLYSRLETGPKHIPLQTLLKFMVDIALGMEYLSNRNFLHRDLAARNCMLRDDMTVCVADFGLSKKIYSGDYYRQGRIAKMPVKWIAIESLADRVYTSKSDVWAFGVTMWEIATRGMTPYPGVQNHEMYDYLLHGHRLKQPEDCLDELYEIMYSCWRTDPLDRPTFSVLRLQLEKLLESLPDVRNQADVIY
From the text: as §1, §2, §3, §4, §5, §6, §7, §8, §9, §10, §11

| Structure (SMILES) | IC50 [1] [nM] | IC50 [2] [nM] | IC50 [3] [nM] |
| --- | --- | --- | --- |
| COc1cc(OCC2CCN(C)CC2)cc2ncnc(Oc3ccc(F)cc3Cl)c12 [Example 2.34, 4-(2-chloro-4-fluorophenoxy)-5-methoxy-7-((1-methylpiperidin-4-yl)methoxy)quinazoline] | < 500 | 1000 to 10000 | 500 to 1000 |
| Cc1cc(Nc2ncnc3cc(OCCCN4CCOCC4)cc(OC4CCOCC4)c23)on1 [Example 2.35, 3-methyl-N-(7-(3-morpholinopropoxy)-5-((tetrahydro-2H-pyran-4-yl)oxy)quinazolin-4-yl)isoxazol-5-amine] | > 10000 | 1000 to 10000 | 1000 to 10000 |
| Cc1nnc(Nc2ncnc3cc(OCC4CCN(C)CC4)cc(OC4CCOCC4)c23)s1 [Example 2.36, 5-methyl-N-(7-((1-methylpiperidin-4-yl)methoxy)-5-((tetrahydro-2H-pyran-4-yl)oxy)quinazolin-4-yl)-1,3,4-thiadiazol-2-amine] | > 10000 | 1000 to 10000 | 1000 to 10000 |
| CN1CCC(COc2cc(OC3CCOCC3)c3c(Nc4nnc(C(F)(F)F)s4)ncnc3c2)CC1 [Example 2.37, N-(7-((1-methylpiperidin-4-yl)methoxy)-5-((tetrahydro-2H-pyran-4-yl)oxy)quinazolin-4-yl)-5-(trifluoromethyl)-1,3,4-thiadiazol-2-amine] | > 10000 | 1000 to 10000 | > 10000 |
| CN1CCC(COc2cc(OC3CCOCC3)c3c(Nc4nncs4)ncnc3c2)CC1 [Example 2.38, N-(7-((1-methylpiperidin-4-yl)methoxy)-5-((tetrahydro-2H-pyran-4-yl)oxy)quinazolin-4-yl)-1,3,4-thiadiazol-2-amine] | 1000 to 10000 | < 500 | 500 to 1000 |
| CN1CCC(COc2cc(OC3CCOCC3)c3c(Nc4nccs4)ncnc3c2)CC1 [Example 2.39, N-(7-((1-methylpiperidin-4-yl)methoxy)-5-((tetrahydro-2H-pyran-4-yl)oxy)quinazolin-4-yl)thiazol-2-amine] | 500 to 1000 | < 500 | < 500 |
| Cc1cc(Nc2ncnc3cc(OCC4CCN(C)CC4)cc(OC4CCOCC4)c23)on1 [Example 2.40, 3-methyl-N-(7-((1-methylpiperidin-4-yl)methoxy)-5-((tetrahydro-2H-pyran-4-yl)oxy)quinazolin-4-yl)isoxazol-5-amine] | 1000 to 10000 | < 500 | 1000 to 10000 |
| COCCN1CCN(c2cc(OC3CCOCC3)c3c(Nc4nc(C(F)(F)F)cs4)ncnc3c2)CC1 [Example 2.41, N-(7-(4-(2-methoxyethyl)piperazin-1-yl)-5-((tetrahydro-2H-pyran-4-yl)oxy)quinazolin-4-yl)-4-(trifluoromethyl)thiazol-2-amine] | > 10000 | 1000 to 10000 | > 10000 |
| Cc1csc(Nc2ncnc3cc(OCC4CCN(C)CC4)cc(OC4CCOCC4)c23)n1 [Example 2.42, 4-methyl-N-(7-((1-methylpiperidin-4-yl)methoxy)-5-((tetrahydro-2H-pyran-4-yl)oxy)quinazolin-4-yl)thiazol-2-amine] | 1000 to 10000 | < 500 | < 500 |
| Cc1cnc(Nc2ncnc3cc(OCC4CCN(C)CC4)cc(OC4CCOCC4)c23)s1 [Example 2.43, 5-methyl-N-(7-((1-methylpiperidin-4-yl)methoxy)-5-((tetrahydro-2H-pyran-4-yl)oxy)quinazolin-4-yl)thiazol-2-amine] | 1000 to 10000 | < 500 | < 500 |
| CN1CCC(CCOc2cc(OC3CCOCC3)c3c(Nc4nc(C(F)(F)F)cs4)ncnc3c2)CC1 [Example 2.45, N-(7-(2-(1-methylpiperidin-4-yl)ethoxy)-5-((tetrahydro-2H-pyran-4-yl)oxy)quinazolin-4-yl)-4-(trifluoromethyl)thiazol-2-amine] | > 10000 | < 500 | 1000 to 10000 |
| CN1CCC(COc2cc(OC3CCOCC3)c3c(Sc4nncs4)ncnc3c2)CC1 [Example 2.47, 2-((7-((1-methylpiperidin-4-yl)methoxy)-5-((tetrahydro-2H-pyran-4-yl)oxy)quinazolin-4-yl)thio)-1,3,4-thiadiazole] | 1000 to 10000 | < 500 | 1000 to 10000 |
| Cc1nnc(Sc2ncnc3cc(OCC4CCN(C)CC4)cc(OC4CCOCC4)c23)s1 [Example 2.48, 2-methyl-5-((7-((1-methylpiperidin-4-yl)methoxy)-5-((tetrahydro-2H-pyran-4-yl)oxy)quinazolin-4-yl)thio)-1,3,4-thiadiazole] | > 10000 | 500 to 1000 | > 10000 |
| Cc1nc(Sc2ncnc3cc(OCC4CCN(C)CC4)cc(OC4CCOCC4)c23)oc1C [Example 2.49, 4,5-dimethyl-2-((7-((1-methylpiperidin-4-yl)methoxy)-5-((tetrahydro-2H-pyran-4-yl)oxy)quinazolin-4-yl)thio)oxazole] | 1000 to 10000 | > 10000 | > 10000 |
| CN1CCC(COc2cc(OC3CCOCC3)c3c(Sc4nc(C(F)(F)F)cs4)ncnc3c2)CC1 [Example 2.50, 2-((7-((1-methylpiperidin-4-yl)methoxy)-5-((tetrahydro-2H-pyran-4-yl)oxy)quinazolin-4-yl)thio)-4-(trifluoromethyl)thiazole] | > 10000 | 500 to 1000 | 1000 to 10000 |

— patent US9771333B2, “Quinazoline derivatives as TAM family kinase inhibitors” (SIGNALCHEM LIFESCIENCES CORP., priority 2013, dated 2017)
